From patent publication US20250034171A1, “IMIDAZOPYRIDINE AMIDES AND RELATED COMPOUNDS FOR USE IN THE TREATMENT OF BACTERIAL INFECTIONS” (priority 2021, published 2025)
≈ marks a conversion by molar mass, not a printed value. Read-outs that look alike come from different tables or passages of the source.

How the values were obtained:
[1] = tested on: Mycobacterium tuberculosis strain H37Rv; experiment: Test 2: MIC determination against M. tuberculosis, resazurin fluorescence; assay type: cell-based; settings: Test 2, M. tuberculosis H37Rv; for MIC90: read-out: Bacterial activity MIC90; for IC50: read-out: Bacterial activity pMIC50 (converted)
[2] = Metabolic stability in liver microsomes (intrinsic clearance); assay type: in vitro ADME; settings: microsomes
Description: The test compound was incubated under the generic condition (0.5 mg/ml microsomal protein, 1 mM NADPH, 1 mM MgCl2, and 0.1 M phosphate buffer, pH 7.4, 37° C.) at a defined substrate concentration (typically 1 μM) in liver microsomes of selected species across a time course (typically 0, 5, 10, 20, 40 and 60 minutes) at Cyprotex (Cheshire, UK). The liver microsomes, buffer and test compound will be pre-incubated for 5 minutes. The addition of the co-factor NADPH will initiate the reaction and the reaction was terminated by addition of acetonitrile. The samples were centrifuged prior to analysis by LC-MS/MS analysis. The relative amount of parent compound remaining in the active incubations vs. the control incubations (t=0 mins) for each compound was measured by peak area comparison. The in vitro metabolic half-life (t1/2) was calculated using the slope of the log-linear regression from the percentage parent compound remaining versus time relationship (κ), The in vitro intrinsic clearance (Cl^int) (μl/min/mg microsomal protein) was calculated using the in vitro metabolic half-life, incubation volume and the weight of microsomal protein in the incubation.

[3] = HTChem stab assay (chemical stability in buffer pH2, pH4 and pH7 vs DMSO reference); assay type: physicochemical
Description: HTChem stab assay was used to assess the chemical stability of the compounds. 72 h stirring at rt in a buffer pH2, pH4 and pH7 vs a reference DMSO solution. HTChem stab assay is based on the handbook of Pharmaceutical Stress Testing, Predicting Drug Degradation, second edition, authors Baertschi, Alsante, Reed ISBN 978-143980179-6.
Compounds were plated (1 μl 10 mM DMSO stock in 96 well plate (DMSO control+3 pH conditions), one plate per condition).
200 μL of respectively DMSO, Buffer/DMSO mix pH2, Buffer/DMSO mix pH4 and Buffer/DMSO mix pH7 was added.
After 72 h shaking (300 rpm) at room temperature the samples were analysed by LC/UV/MS. Chromatograms of samples (stability conditions) were compared with the chromatograms of control sample (DMSO). Extra peaks were flagged and identified by mass spectrometry. Sample purity (reference included) were reported.
• pH3 buffer: For 11; weigh 4.14 g NaH2PO4·H2O, add 600 ml H2O, add H3PO4 to pH3, add H2O to 1000 ml. Filter over 0.2 μm and store at 4° C. Expires after 30 days. • pH6 buffer: For 1 l; weigh 4.14 g NaH2PO4·H2O, add 600 ml H2O, add 1N NaOH to pH6, add H2O to 1000 ml. Filter over […] and store at 4° C. Expires after 30 days.
• pH2 Buffer/DMSO (StabSolvent): mix 2 parts of HCl 0.1N with 1 part of DMSO • pH4 Buffer/DMSO (StabSolvent): mix 2 parts of buffer pH3 with 1 part of DMSO • pH7 Buffer/DMSO (StabSolvent): mix 2 parts of buffer pH6 with 1 part of DMSO measure pH prior to use.
Instrument: Acquity UPLC; Column: Acquity HSS T3, 50 mm length×2.1 mm i.d., 1.8 μm particle size. Detectors: PDA (250-350 nm) and SQD2 (90-1500m/z). Mobile phase A: 0.1% Formic acid in water; Mobile phase B: 0.1% Formic acid in Acetonitrile.
Injection volume: 5 μL, flow rate 0.6 mL/min.
Data processing including peak integration and identification was done with Waters OpenLynx software.

[4] = Mycobacterium tuberculosis, H37RV

Row | SMILES | Bacterial activity pMIC50 [1] | MIC90 [1] [µM] | Metabolic Stability (liver microsome intrinsic clearance) Clearance (mouse, μl/min./mg protein) ([2]; mouse) [μl/min./mg protein] | Metabolic Stability Half life (mouse, min.) ([2]; mouse) [h] | MIC90 [1, 4] [µM] | IC50 [1, 4] [pM] | Chemical stability data, Vehicle DMSO ([3]; 72 h, 50 µM) [%] | Chemical stability data, Buffer pH2 ([3]; 72 h, 50 µM, pH 2) [%] | Chemical stability data, Buffer pH4 ([3]; 72 h, 50 µM, pH 4) [%] | Chemical stability data, Buffer pH7 ([3]; 72 h, 50 µM, pH 7) [%] | other results
1 | CCc1nc2ncc(C)cn2c1C(=O)NCc1ccc(-c2nc3n(n2)CCC(C(F)(F)F)C3)cc1 (single isomer, unassigned) [Compound 1b] | 8.576 | 0.007 (≈ 0.00338 µg/mL) | 7.8 | 2.97 |  |  |  |  |  |  | Metabolic Stability (liver microsome intrinsic clearance) Clearance (human, μl/min./mg protein) ([2]; human): 7.81 μl/min./mg protein; Metabolic Stability Half life (human, min.) ([2]; human): 2.97 h
2 | CCc1nc2ncccn2c1C(=O)NCc1ccc(-c2nc3n(n2)CC[C@@H](C(F)(F)F)C3)c(F)c1 (single isomer, unassigned) [Compound 73] | 7.18 | 0.35 (≈ 0.171 µg/mL) | <7.7 | >3 |  |  |  |  |  |  | 
3 | CCc1nc2ncccn2c1C(=O)NCc1ccc(-c2nc3n(n2)CC[C@H](C(F)(F)F)C3)c(F)c1 (single isomer, unassigned) [Compound 74] | 6.94 | >0.5 | <7.7 | >3 |  |  |  |  |  |  | 
4 | CCc1nc2n(c1C(=O)NCc1ccc(-c3nc4n(n3)CC[C@H](C(F)(F)F)C4)c(F)c1)CCCC2 (single isomer, unassigned) [Compound 77] | 7.6 | 0.098 (≈ 0.0481 µg/mL) | 26.1 | 0.885 |  |  |  |  |  |  | 
5 | CCc1nc2ncc(C)cn2c1C(=O)NCc1ccc(-c2cn3c(n2)CC(C(F)(F)F)CC3)cc1 (stereo not shown) [Compound 3ab] |  |  |  |  | 0.009 (≈ 0.00434 µg/mL) | 3550 |  |  |  |  | half-life at 1 µM ([2]; human, pH 7.4, Metabolic Stability Half life (human, min.)): 1.54 h; microsomal CLint at 1 µM ([2]; human, pH 7.4, human liver microsomes, read-out: Metabolic Stability (liver microsome intrinsic clearance) Clearance (human, μl/min./mg protein)): 15 µL/min/mg; half-life at 1 µM ([2]; mouse, pH 7.4, Metabolic Stability Half life (mouse, min.)): 1.7 h; microsomal CLint at 1 µM ([2]; mouse, pH 7.4, mouse liver microsomes, read-out: Metabolic Stability (liver microsome intrinsic clearance) Clearance (mouse, μl/min./mg protein)): 13.6 µL/min/mg
6 | CCc1nc2ncc(CN)cn2c1C(=O)NCc1ccc(-c2nc3n(n2)CCC(C(F)(F)F)C3)cc1 (stereo not shown) [Compound 16ab] |  |  |  |  |  | > 500000 | 77 | 74 | 74 | 80 | 
7 | CCc1nc2ncc(C)cn2c1C(=O)NCc1ccc(-c2nc3n(c2C)CCC(C(F)(F)F)C3)cc1 (stereo not shown) [Compound 19ab] |  |  |  |  | 0.047 (≈ 0.0233 µg/mL) | 11500 | 98 | 98 | 98 | 98 | 
8 | CCc1nc2ncc(C)cn2c1C(=O)NCc1ccc(-c2nn3c(c2C)CC(C(F)(F)F)CC3)cc1 (stereo not shown) [Compound 21ab] |  |  |  |  | 0.011 (≈ 0.00546 µg/mL) | 3490 | 100 | 100 | 100 | 100 | 
9 | CCc1nc2ncc(C)cn2c1C(=O)NCc1ccc(-c2nc3n(n2)CCC(C2CC2)C3)cc1 (stereo not shown) [Compound 27ab] |  |  |  |  | 0.014 (≈ 0.00638 µg/mL) | 4610 | 100 | 100 | 100 | 100 | 
10 | CCCC1CCn2nc(-c3ccc(CNC(=O)c4c(CC)nc5ncc(C)cn45)cc3)nc2C1 (stereo not shown) [Compound 28ab] |  |  |  |  | 0.011 (≈ 0.00503 µg/mL) | 3660 | 100 | 100 | 100 | 100 | 
11 | CCc1nc2ncc(C)cn2c1C(=O)NCc1ccc(-c2nc3n(n2)CCCC3)c(F)c1 [Compound 32ab] |  |  |  |  | 0.248 (≈ 0.108 µg/mL) | 79800 | 100 | 100 | 100 | 100 | 
12 | CCc1nc2ncc(C)cn2c1C(=O)NCc1ccc(-c2nc3n(n2)CCC(OC(F)(F)F)C3)cc1 (stereo not shown) [Compound 33ab] |  |  |  |  | 0.039 (≈ 0.0195 µg/mL) | 12700 | 100 | 64 | 100 | 100 | 
13 | O=C(NCc1ccc(-c2cn3c(n2)CC(C(F)(F)F)CC3)nc1)c1c(C(F)(F)F)nc2ccccn12 (stereo not shown) [Compound 36ab] | <6.301 |  |  |  |  |  |  |  |  |  | Chemical stability data, Buffer pH2 ([3]; buffer pH2/DMSO, 72 h stirring at rt): 100%; Chemical stability data, Buffer pH4 ([3]; buffer pH4/DMSO, 72 h stirring at rt): 100%; Chemical stability data, Buffer pH7 ([3]; buffer pH7/DMSO, 72 h stirring at rt): 100%; Chemical stability data, Vehicle DMSO ([3]; reference DMSO solution, 72 h stirring at rt): 100%
